Results published in PMC9584815, “The aldolase inhibitor aldometanib mimics glucose starvation to activate lysosomal AMPK” (Nature Metabolism, 2022).
Residue numbers refer to the chain shown, from its start.

Key:
rabbit aldolase (ALDOA) = target: T1, rabbit aldolase (ALDOA) (Oryctolagus cuniculus, UniProt P00883); assay: SPR (CM5 chip, Biacore 8K); also MS adduct on Lys230 and enzymatic inhibition (IC50 about […]); type: binding
T1 construct: rabbit aldolase (ammonium sulfate precipitated; A8811)
T1 sequence (P00883 2-364): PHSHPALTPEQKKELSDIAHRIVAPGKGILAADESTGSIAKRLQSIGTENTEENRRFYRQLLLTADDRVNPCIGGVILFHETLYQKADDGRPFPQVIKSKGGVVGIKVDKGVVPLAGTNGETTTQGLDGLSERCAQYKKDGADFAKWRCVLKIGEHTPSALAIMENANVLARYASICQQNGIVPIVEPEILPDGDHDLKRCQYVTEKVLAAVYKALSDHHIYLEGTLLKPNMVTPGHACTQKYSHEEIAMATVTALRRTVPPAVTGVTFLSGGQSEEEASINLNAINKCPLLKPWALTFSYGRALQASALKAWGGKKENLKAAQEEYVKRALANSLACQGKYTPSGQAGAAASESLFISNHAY

ALDOA = target: T2, ALDOA (Homo sapiens, UniProt P04075); assay: aldolase/TPI/GPDH-coupled NADH assay; type: biochemical
T2 construct: full-length, His-tagged, bacterially expressed and purified
T2 sequence (P04075 2-364): T1 sequence (P00883 2-364) with H2Y, S3Q, H4Y, Y243F, V267I, I358V

Kd (rabbit aldolase (ALDOA)): ~20 µM
IC50 (ALDOA): ~50 µM
Compound: CCCCCCCCCCCCCCCCn1cc[n+](Cc2c(Cl)cccc2Cl)c1C [LXY-05-029, aldometanib]
